# Assay results reported in US20240315992A1, “AMINOXY ACID-BASED ANTIBACTERIAL COMPOUNDS AND METHODS THEREOF” (The University of Hong Kong, priority 2023, published 2024).
# Legend:
# MSSA ATCC 35556 = assay: MIC by CLSI broth micro-dilution, MSSA ATCC 35556; type: cell-based; conditions: Staphylococcus aureus, read-out: Minimum inhibitory concentration
# Method: (§1) Aminoxy acids were synthesized by the standard peptide coupling procedures. Minimum inhibitory concentration was determined using CLSI broth micro-dilution method in 96-wells microtitre plates. Minimum inhibitory concentration is defined as the lowest concentration of the compound that inhibits visible growth of the bacteria. All experiments were performed three times. 24 compounds including aminoxy acid monomers and dipeptides have been identified to show toxicity against multidrug resistant Staphylococcus aureus Mu3 and summarized in Table 1. The minimum inhibitory concentration of compound 8 and compound 35 on other gram-positive bacteria was also evaluated and summarized in Table 2. […] As shown in FIGS. 3A-3B there are no observable hemolysis for compound 8 and compound 35 towards human red blood cell.
# (§2) Bacteria were streaked from the glycerol stock into BHI agar and were incubated overnight. Single colony was picked for the overnight culture in cation-adjusted Mueller Hinton broth (CAMH), LB or BHI. The overnight culture was sub-cultured and regrew to exponential phase for the experiment.
# (§3) MIC was determined by CLSI broth micro-dilution method in 96-wells microtitre plates. […] Optical density was recorded by DTX 880 multimode detector (Beckman Coulter, California, US). […]
# MSSA ATCC 6538 = assay: MIC by CLSI broth micro-dilution, MSSA ATCC 6538; type: cell-based; conditions: Staphylococcus aureus, read-out: Minimum inhibitory concentration
# Method: as §1, §2, §3
# B. subtilis WT168 = assay: MIC by CLSI broth micro-dilution, B. subtilis WT168; type: cell-based; conditions: Bacillus subtilis, read-out: Minimum inhibitory concentration
# Method: as §1, §2, §3
# NIH3T3 cells = assay: Mammalian cell cytotoxicity assay (MTT), NIH3T3; type: cell-based; conditions: for IC50: Mus musculus, NIH3T3, MTT assay, 24 hours, read-out: IC50, toxicity towards mammalian cells NIH3T3; for toxicity against mammalian cell NIH3T3: at 16 folded MIC (50 μM compound 8, 12.5 μM compound 35)
# Method: NIH3T3 cells were cultured in DMEM supplemented with 10% fetal bovine serum (FBS), 100 U/ml penicillin and 0.1 mg/ml streptomycin. Cells were grown in treated culture flasks at 37° C. in a 5% CO2 humidified incubator and passaged every 2-3 days.
# In the treated culture dish, cells were washed by PBS and then trypsinized. DMEM was added to quench the reaction. Cells were centrifuged and resuspended into fresh DMEM. Cells were then seeded in 96-well microtitre plate (100 μL, 5000 cells per well) for 24 hours before addition of compounds. The compounds were two-fold serial diluted by DMSO in a DMSO-compatible 96-well plate. 1 μL of compound in DMSO is transferred into the 96-well microtitre preparation plate containing 100 μL DMEM medium. The medium in culture plate was removed and compounds in preparation plate were transferred to culture plate. Equal volume of DMSO was used as negative control.
# After 24 hours of incubation of cells, cell viability was measured by MTT assay. In MTT assay, 20 μL 5 mg/mL MTT solution in PBS was added to cell medium and cultured for 3 hours. The medium was then removed and 50 μL DMSO was added and cultured for 10 minutes. Absorbance at 595 nm was measured spectrophotometrically (Beckman Coulter DTX 880 Multimode Detector) and normalized to DMSO group. Biological replicates were performed.
# [1] = tested on: Staphylococcus aureus ATCC 35556 biofilm formation; assay: Inhibition of biofilm formation (crystal violet); type: cell-based; conditions: 24 hours treatment, also sub-inhibitory concentration
# Method: Staphylococcus aureus ATCC 35556 was treated with various concentrations of compound 8, compound 35 or 1% DMSO as negative control for 24 hours. Biofilm was quantified using crystal violet. The data were normalized to DMSO (100% biofilm) and represent average values±S.D. (n=9 per group). Statistical analysis was performed by ANOVA with Dunnett's post-test to calculate p-values adjusted for multiple comparisons with DMSO as control condition (*p<0.05; **p<0.01; ***p<0.001).
# Briefly, overnight cultures of Staphylococcus aureus ATCC 35556 in Tryptic Soy Broth (TSB) were sub-cultured from an overnight culture 1:100 for 2.5 hours. The bacteria were diluted 1:100 into fresh TSB and 200 μL bacteria in TSB was added to each well of a flat-bottomed 96-well plate (200 μL/well). Compounds (two-fold serial dilutions; final DMSO concentration of maximum 1%) were added. Plates were incubated at 37° C. for 24 hours. After 24 hours, the supernatant was removed and washed by PBS (200 μL) 2 times. Biofilms were dried at 37° C. for 30 minutes. 1% Crystal violet (25% ethanol in H2O) was diluted 1:5 in PBS and 200 μL was added to each well, followed by incubation at room temperature for 10 minutes. […] Following a 1:4 dilution step (33% acetic acid), optical density was measured at 595 nm by Beckman Coulter DTX 880 Multimode Detector. […]
# [2] = tested on: Staphylococcus aureus strain USA300-LAC; assay: Lethal bacteremia infection model, survival; type: in vivo, Balb/c mice; conditions: 10 mg/kg/day intraperitoneal, twice per day, 7 days
# Method: FIG. 8 is a line graph showing compound 8 and compound 35 rescue mice from Staphylococcus aureus bacteremia infection model. Statistical analysis was performed with a log rank test (Mantel Cox test). (*p<0.05).
# Staphylococcus aureus strain USA300-LAC were cultured to the early exponential phase of growth, washed twice with sterile phosphate-buffered saline solution (PBS), and resuspended in PBS at 3×10^7 CFU/200 μL for lethal bacteremia model. The female Balb/c mice, 6-8 weeks, were infected intravenously (i.v.) through the tail vein with Staphylococcus aureus and randomized into three groups (N=11 for vehicle; N=12 for compound 8 and compound 35 respectively). Six hour after infection, mice received intraperitoneal injections of compound 8 or compound 35 (10 mg/kg/day) or an injection of buffer (PBS with 2.5% DMSO and 2% Tween-80) as the control. The compound and injection buffer treatments were performed twice per day at 12-h intervals. The challenged mice were monitored for 7 days, at which point all the remaining mice were sacrificed. Statistical analysis was performed with a log rank test (Mantel Cox test). (*p<0.05).
Structure (SMILES),MIC (MSSA ATCC 35556) [µM],MIC (MSSA ATCC 6538) [µM],MIC (B. subtilis WT168) [µM],IC50 (NIH3T3 cells) [µM],toxicity against mammalian cell NIH3T3 (NIH3T3 cells),formation of the Staphylococcus aureus biofilm [1],rescue of mice from bacteremia infection (survival) [2]
CC(C)C[C@H](ONC(=O)[C@@H](COCc1ccccc1)ONC(=O)c1cc(C(F)(F)F)cc(C(F)(F)F)c1)C(=O)Nc1ccccc1 [Compound 8],3.13,3.13,3.13,> 50,minimal toxicity,significantly inhibited the formation of the Staphylococcus aureus biofilm even under sub-inhibitory concentration,can rescue mice
CC(C)C[C@H](ONC(=O)[C@@H](COCc1ccccc1)ONC(=O)c1cc(C(F)(F)F)cc(C(F)(F)F)c1)C(=O)Nc1ccc2c(c1)OC(F)(F)O2 [Compound 35],0.78,1.56,1.56,> 50,minimal toxicity,significantly inhibited the formation of the Staphylococcus aureus biofilm even under sub-inhibitory concentration,can rescue mice
